Where two headings read alike, the source gives them in different places.
Tests used:
Format in all cases: cell-based, human
HTT mRNA = assay: RT-qPCR splicing assay, HTT mRNA canonical (CJ) and alternative (AJ) junction; details: for AC50: HTT alternative junction mRNA, read-out: HTT AJ (increase in AJ mRNA, AC50)
Method in brief: (§1)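 Junction-specific RT-qPCR read-out: CJ and AJ isoform levels, housekeeper-normalized (GAPDH/GUSB/PPIA), ΔΔCt vs DMSO, converted to RQ then % response. Cells: A673 (DMEM/10% FBS, adhered 24 h) or K562 (IMDM/10% FBS). Compound 11-pt 3-fold, top 10 uM, 24 h, 37 °C.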

MYB mRNA = assay: RT-qPCR splicing assay, MYB mRNA canonical (CJ) and alternative (AJ) junction; details: for AC50: MYB alternative junction mRNA, read-out: MYB AJ (increase in AJ mRNA, AC50)
Method in brief: as §1

HTT = assay: HiBiT protein abundance assay, HTT (K562 HiBiT knock-in); details: HiBiT knock-in K562 cells, 24 hours, top dose 10 μM
Method in brief: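 K562 HiBiT knock-in, 24 h, 37 °C, top 10 μM final, 3-fold ×10, DMSO ≤0.25%. Lytic HiBiT luminescence; PC = parental K562, NC = DMSO; 4PL IC50.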

[1] = Homo sapiens, HTT canonical junction mRNA, RT-qPCR, read-out: HTT CJ (decrease in CJ mRNA levels, IC50)
[2] = Homo sapiens, canonical junction qPCR panel, Table 4, read-out: HTT IC50 (decrease in CJ mRNA levels)
[3] = Homo sapiens, MYB canonical junction mRNA, RT-qPCR, read-out: MYB CJ (decrease in CJ mRNA levels, IC50)
[4] = Homo sapiens, canonical junction qPCR panel, Table 4, read-out: MYB IC50 (decrease in CJ mRNA levels)

| Structure (SMILES) | IC50 (HTT mRNA; [1]) | IC50 (HTT mRNA; [2]) | IC50 (MYB mRNA; [3]) | IC50 (MYB mRNA; [4]) | IC50 (HTT) | IC50 (HTT mRNA; HTT canonical junction mRNA, RT-qPCR, read-out: HTT CJ (decrease in CJ mRNA levels, IC50)) | IC50 (HTT mRNA; canonical junction qPCR panel, Table 4, read-out: HTT IC50 (decrease in CJ mRNA levels)) | IC50 (MYB mRNA; MYB canonical junction mRNA, RT-qPCR, read-out: MYB CJ (decrease in CJ mRNA levels, IC50)) | IC50 (MYB mRNA; canonical junction qPCR panel, Table 4, read-out: MYB IC50 (decrease in CJ mRNA levels)) | AC50 (HTT mRNA; Homo sapiens, RT-qPCR) | AC50 (MYB mRNA; Homo sapiens, RT-qPCR) | AC50 (HTT mRNA; RT-qPCR) | AC50 (MYB mRNA; RT-qPCR) |
| --- | --- | --- | --- | --- | --- | --- | --- | --- | --- | --- | --- | --- | --- |
| Cn1cc2cc(-c3ccc4nc(N5CC[C@H](NC6CC6)C5)ccc4n3)c(O)c(F)c2n1 (single isomer, unassigned) [Compound 306] | < 0.1 µM | < 0.1 µM | < 0.1 µM | < 0.1 µM | < 0.1 µM |  |  |  |  | < 0.1 µM | < 0.1 µM |  |  |
| Cc1nc2c(F)c(O)c(-c3ccc4nc(N5CC[C@@H](NC6CCC6)C5)ccc4n3)cc2o1 (single isomer, unassigned) [Compound 307] | < 0.1 µM | < 0.1 µM | < 0.1 µM | < 0.1 µM | < 0.1 µM |  |  |  |  | < 0.1 µM | < 0.1 µM |  |  |
| Cc1nc2c(F)c(O)c(-c3ccc4nc(N5CC[C@H](NC6CCC6)C5)ccc4n3)cc2o1 (single isomer, unassigned) [Compound 308] | < 0.1 µM | < 0.1 µM | < 0.1 µM | < 0.1 µM | < 0.1 µM |  |  |  |  | < 0.1 µM | < 0.1 µM |  |  |
| Cc1nc2c(C)c(O)c(-c3ccc4nc(N5CC[C@@H](NC6(C)CC6)C5)ccc4n3)cc2o1 (single isomer, unassigned) [Compound 310] | < 0.1 µM | < 0.1 µM | < 0.1 µM | < 0.1 µM | < 0.1 µM |  |  |  |  | < 0.1 µM | < 0.1 µM |  |  |
| Cc1nc2c(C)c(O)c(-c3ccc4nc(N5CC[C@H](NC6(C)CC6)C5)ccc4n3)cc2o1 (single isomer, unassigned) [Compound 311] | < 0.1 µM | < 0.1 µM | 0.1 to 1 µM | 0.1 to 1 µM | < 0.1 µM |  |  |  |  | < 0.1 µM | 0.1 to 1 µM |  |  |
| Cc1nc2c(C)c(O)c(-c3ccc4nc(N5CC[C@@H](NC(C)C)C5)ccc4n3)cc2o1 (single isomer, unassigned) [Compound 313] | < 0.1 µM | < 0.1 µM | < 0.1 µM | < 0.1 µM | < 0.1 µM |  |  |  |  | < 0.1 µM | < 0.1 µM |  |  |
| Cc1nc2c(C)c(O)c(-c3ccc4nc(N5CC[C@H](NC(C)C)C5)ccc4n3)cc2o1 (single isomer, unassigned) [Compound 314] | < 0.1 µM | < 0.1 µM | < 0.1 µM | < 0.1 µM | < 0.1 µM |  |  |  |  | < 0.1 µM | < 0.1 µM |  |  |
| Cn1cc2cc(-c3ccc4nc(N5CC[C@@H](NC6CCC6)C5)ccc4n3)c(O)c(F)c2n1 (single isomer, unassigned) [Compound 316] | < 0.1 µM | < 0.1 µM | < 0.1 µM | < 0.1 µM | < 0.1 µM |  |  |  |  | < 0.1 µM | < 0.1 µM |  |  |
| Cn1cc2cc(-c3ccc4nc(N5CC[C@H](NC6CCC6)C5)ccc4n3)c(O)c(F)c2n1 (single isomer, unassigned) [Compound 317] | < 0.1 µM | < 0.1 µM | < 0.1 µM | < 0.1 µM | < 0.1 µM |  |  |  |  | < 0.1 µM | < 0.1 µM |  |  |
| Cc1c(O)c(-c2ccc3nc(N4CC[C@@H](NC(C)C)C4)ccc3n2)cc2cn(C)nc12 (single isomer, unassigned) [Compound 319] | < 0.1 µM | < 0.1 µM | < 0.1 µM | < 0.1 µM | < 0.1 µM |  |  |  |  | < 0.1 µM | < 0.1 µM |  |  |
| Cc1c(O)c(-c2ccc3nc(N4CC[C@H](NCC5CC5)C4)ccc3n2)cc2cn(C)nc12 (single isomer, unassigned) [Compound 321] | < 0.1 µM | < 0.1 µM | < 0.1 µM | < 0.1 µM | < 0.1 µM |  |  |  |  | < 0.1 µM | < 0.1 µM |  |  |
| Cc1c(O)c(-c2ccc3nc(N4CC[C@@H](NCC5CC5)C4)ccc3n2)cc2cn(C)nc12 (single isomer, unassigned) [Compound 322] | < 0.1 µM | < 0.1 µM | < 0.1 µM | < 0.1 µM | < 0.1 µM |  |  |  |  | < 0.1 µM | < 0.1 µM |  |  |

The next lines start with results.

| IC50 (HTT mRNA; [1]) | IC50 (HTT mRNA; [2]) | IC50 (MYB mRNA; [3]) | IC50 (MYB mRNA; [4]) | IC50 (HTT) | IC50 (HTT mRNA; HTT canonical junction mRNA, RT-qPCR, read-out: HTT CJ (decrease in CJ mRNA levels, IC50)) | IC50 (HTT mRNA; canonical junction qPCR panel, Table 4, read-out: HTT IC50 (decrease in CJ mRNA levels)) | IC50 (MYB mRNA; MYB canonical junction mRNA, RT-qPCR, read-out: MYB CJ (decrease in CJ mRNA levels, IC50)) | IC50 (MYB mRNA; canonical junction qPCR panel, Table 4, read-out: MYB IC50 (decrease in CJ mRNA levels)) | Structure (SMILES) | AC50 (HTT mRNA; Homo sapiens, RT-qPCR) | AC50 (MYB mRNA; Homo sapiens, RT-qPCR) | AC50 (HTT mRNA; RT-qPCR) | AC50 (MYB mRNA; RT-qPCR) |
| --- | --- | --- | --- | --- | --- | --- | --- | --- | --- | --- | --- | --- | --- |
| < 0.1 µM | < 0.1 µM | < 0.1 µM | < 0.1 µM | < 0.1 µM |  |  |  |  | Cn1cc2cc(-c3ccc4nc(N5CCC(NC6CC6)C5)ccc4n3)c(O)c(F)c2n1 (racemic) [Compound 287, 5-{6-[3-(cyclopropylamino)pyrrolidin-1-yl]-1,5-naphthyridin-2-yl}-7-fluoro-2-methylindazol-6-ol; trifluoroacetic acid] | < 0.1 µM | < 0.1 µM |  |  |
| < 0.1 µM | < 0.1 µM | < 0.1 µM | < 0.1 µM | < 0.1 µM |  |  |  |  | CC(C)N[C@@H]1CCN(c2ccc3nc(-c4cc5cn(C)nc5c(F)c4O)ccc3n2)C1 (single isomer, unassigned) [Compound 285] | < 0.1 µM | < 0.1 µM |  |  |
| < 0.1 µM | < 0.1 µM | < 0.1 µM | < 0.1 µM | < 0.1 µM |  |  |  |  | CC(C)N[C@H]1CCN(c2ccc3nc(-c4cc5cn(C)nc5c(F)c4O)ccc3n2)C1 (single isomer, unassigned) [Compound 286] | < 0.1 µM | < 0.1 µM |  |  |
| < 0.1 µM | < 0.1 µM | < 0.1 µM | < 0.1 µM | < 0.1 µM |  |  |  |  | Cc1c(O)c(-c2ccc3nc(N4CC[C@@H](NC5CCC5)C4)ccc3n2)cc2cn(C)nc12 (single isomer, unassigned) [Compound 289] | < 0.1 µM | < 0.1 µM |  |  |
| < 0.1 µM | < 0.1 µM | < 0.1 µM | < 0.1 µM | < 0.1 µM |  |  |  |  | Cc1c(O)c(-c2ccc3nc(N4CC[C@H](NC5CCC5)C4)ccc3n2)cc2cn(C)nc12 (single isomer, unassigned) [Compound 290] | < 0.1 µM | < 0.1 µM |  |  |
| 0.1 to 1 µM | 0.1 to 1 µM | 0.1 to 1 µM | 0.1 to 1 µM | < 0.1 µM |  |  |  |  | Cc1nc2cc(O)c(-c3ccc4nc(N5CCC(NCC6CC6)C5)ccc4n3)cc2o1 (single isomer, unassigned) [Compound 291, 6-(6-{3-[(cyclopropylmethyl)amino]pyrrolidin-1-yl}-1,5-naphthyridin-2-yl)-2-methyl-1,3-benzoxazol-5-ol] | 0.1 to 1 µM | 0.1 to 1 µM |  |  |
|  |  |  |  | < 0.1 µM | 0.1 to 1 µM | 0.1 to 1 µM | < 0.1 µM | < 0.1 µM | Cc1nc2cc(O)c(-c3ccc4nc(N5CCC(NCC6CC6)C5)ccc4n3)cc2o1 (single isomer, unassigned) [Compound 292, 6-(6-{3-[(cyclopropylmethyl)amino]pyrrolidin-1-yl}-1,5-naphthyridin-2-yl)-2-methyl-1,3-benzoxazol-5-ol] |  |  | 0.1 to 1 µM | 0.1 to 1 µM |
| < 0.1 µM | < 0.1 µM | < 0.1 µM | < 0.1 µM | < 0.1 µM |  |  |  |  | Cc1nc2c(C)c(O)c(-c3ccc4nc(N5CC[C@@H](NCC6CC6)C5)ccc4n3)cc2o1 (single isomer, unassigned) [Compound 295] | < 0.1 µM | < 0.1 µM |  |  |
| < 0.1 µM | < 0.1 µM | 0.1 to 1 µM | 0.1 to 1 µM | < 0.1 µM |  |  |  |  | Cc1nc2c(C)c(O)c(-c3ccc4nc(N5CC[C@H](NCC6CC6)C5)ccc4n3)cc2o1 (single isomer, unassigned) [Compound 296] | < 0.1 µM | < 0.1 µM |  |  |
| < 0.1 µM | < 0.1 µM | < 0.1 µM | < 0.1 µM | < 0.1 µM |  |  |  |  | Cn1cc2cc(-c3ccc4nc(N5CC[C@@H](N[C@H]6C[C@@H](F)C6)C5)ccc4n3)c(O)cc2n1 (single isomer, unassigned) [Compound 300] | < 0.1 µM | < 0.1 µM |  |  |
| < 0.1 µM | < 0.1 µM | < 0.1 µM | < 0.1 µM | < 0.1 µM |  |  |  |  | Cn1cc2cc(-c3ccc4nc(N5CC[C@@H](NCC6CC6)C5)ccc4n3)c(O)c(F)c2n1 (single isomer, unassigned) [Compound 303] | < 0.1 µM | < 0.1 µM |  |  |
| < 0.1 µM | < 0.1 µM | < 0.1 µM | < 0.1 µM | < 0.1 µM |  |  |  |  | Cn1cc2cc(-c3ccc4nc(N5CC[C@H](NCC6CC6)C5)ccc4n3)c(O)c(F)c2n1 (single isomer, unassigned) [Compound 304] | < 0.1 µM | < 0.1 µM |  |  |
| < 0.1 µM | < 0.1 µM | < 0.1 µM | < 0.1 µM | < 0.1 µM |  |  |  |  | Cn1cc2cc(-c3ccc4nc(N5CC[C@@H](NC6CC6)C5)ccc4n3)c(O)c(F)c2n1 (single isomer, unassigned) [Compound 305] | < 0.1 µM | < 0.1 µM |  |  |

— US20250092065A1, “2-(INDAZOL-5-YL)-6-(PIPERIDIN-4-YL)-1,7-NAPHTHYRIDINE DERIVATIVES AND RELATED COMPOUNDS AS MODULATORS FOR SPLICING NUCLEIC ACIDS AND FOR THE TREATMENT OF PROLIFERATIVE DISEASES” (REMIX THERAPEUTICS INC., priority 2022, published 2025)
